Results from article PMC3071873 (Journal of medicinal chemistry, 2010).
pIC50, pKi: −log10 of the molar value. Several values for one entry are separate records, joined by “and”; a condition that tells them apart may be missing. Equal values may be shown once.

Tests used:
[1] = storage in solution; oxidative or hydrolytic degradation; cited from earlier work
human MAO B = biological target: T1, human MAO B (Homo sapiens, UniProt P27338); experiment: Inhibition of purified recombinant human MAO B; assay type: biochemical; conditions: versus safinamide (ref 12)
T1 sequence (P27338 1-520): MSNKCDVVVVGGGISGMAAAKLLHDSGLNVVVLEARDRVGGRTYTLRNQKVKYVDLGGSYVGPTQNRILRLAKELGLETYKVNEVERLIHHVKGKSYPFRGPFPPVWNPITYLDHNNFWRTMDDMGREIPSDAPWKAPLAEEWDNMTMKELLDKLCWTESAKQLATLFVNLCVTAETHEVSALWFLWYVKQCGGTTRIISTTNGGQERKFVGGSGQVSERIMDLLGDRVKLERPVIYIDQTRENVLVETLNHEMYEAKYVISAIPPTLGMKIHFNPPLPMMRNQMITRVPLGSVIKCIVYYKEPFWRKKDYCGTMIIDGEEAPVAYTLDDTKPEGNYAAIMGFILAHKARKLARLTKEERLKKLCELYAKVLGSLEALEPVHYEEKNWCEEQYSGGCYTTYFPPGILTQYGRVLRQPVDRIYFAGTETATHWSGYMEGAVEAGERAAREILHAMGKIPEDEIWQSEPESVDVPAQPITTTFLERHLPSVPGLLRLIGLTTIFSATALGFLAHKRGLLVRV

[2] = biological target: rat monoamine oxidase (MAO) B; conditions: weak inhibitor; cited from earlier work
[3] = humans, daily dosage of 25 mg; cited from earlier work
[4] = tested on: toxic effect of 1-methyl-4-phenyl-tetrahydropyridine (MPTP); conditions: mice; cited from earlier work
mouse MAO B = conditions: membrane-bound mouse MAO B; cited from earlier work
[5] = cited from earlier work

## NS(=O)(=O)Cc1noc2ccccc12 [Zonisamide, 1,2-benzisoxazole-3-methanesulfonamide]
[1]
  stability of aged solutions: lose inhibition potency on storage in solution
Human MAO B
  weaker Ki value with human MAO B compared to safinamide: ~ 6 fold
[2]
  pKi: 3.18
[3]
  plasma (serum) concentration: ~ 0.6 μM and 0.6 μM
[4]
  effect on MPTP toxicity: attenuates the toxic effect
Mouse MAO B
  pIC50: 4.60
[5]
  brain tissue versus plasma concentrations: higher in brain tissues
